# Columns and labels:
# tibialis of aged mice = test: CTX-induced muscle injury: histology (cross-sectional area, centrally nucleated fibers); format: in vivo
# Description: Impairment of muscle regeneration can contribute to age-related muscle weakness. This is particularly true in aged individuals who engage in physical activity. Exercise-induced muscle hypertrophy is linked to the capacity of muscle stem cells to be activated and promote regeneration.
# Mice were i.p injected with buprenorphine (Centravet, 0.1 mg/kg) 30 minutes before injury and the day after. The day of the injury, mice were anesthetized with isoflurane inhalation and hindlimbs were shaved. Then, 10 μM of cardiotoxin (CTX, Latoxan, #L8102) was injected through two injections of 25 μl into the left tibialis muscle and two injections of 50 μl into the left gastrocnemius muscle, using a 22-gauge needle (Hamilton). Mice were euthanized 3 and 7 days after injury by cervical dislocation, muscles (PBS- and CTX-injected) were cut in two parts, one being snap frozen into liquid nitrogen for total RNA extraction and the other part being embedded into OCT, frozen in isopentane cooled with liquid nitrogen for histological analysis.
# Mouse muscle samples were dissected and cryopreserved in OCT frozen in liquid nitrogen cooled isopentane. Samples were then sectioned at 10 μm on a cryostat and post-fixed with 4% Paraformaldehyde (PFA) for 15min at room temperature. Muscle frozen sections (10 μm) were stained by helaun/eosin or immune-labeled for laminin (Abcam) and embryonic myosin. Briefly, sections were blocked 1 h in PBS plus 4% BS(a), 2% goat serum, 0.01% Triton X-100. Sections were then incubated overnight with primary antibodies. After washes in PBS, sections were incubated 1 h with secondary antibodies anti-Ig2b AF 488 (Life Technology). Slides were finally mounted in ProLong Gold antifade Reagent (Molecular probes by Life Technology) with DAPI. Images were captured using a digital camera (Nanozoomer, Hamamatsu) attached to a motorized fluorescence microscope or using Olympus VS120 Virtual Microscopy Slide Scanning System. The area covered by eMHC-positive fibers and degenerated area was determined manually across the entire sections using the VS-ASW FL software measurement tools. The size of myofibers with central nuclei was calculated from laminin/DAPI staining on all fibers of the section and area determination were performed across the entire sections, using an automated image processing algorithm developed internally using the MetaXpress software (Molecular Devices).
# [1] = system: Pax7, MyoD, MyoG, Myf5, MyHC3, and MyHC8; test: CTX-induced muscle injury: transcript levels of regeneration genes; format: in vivo, mice
# Description: Impairment of muscle regeneration can contribute to age-related muscle weakness. This is particularly true in aged individuals who engage in physical activity. Exercise-induced muscle hypertrophy is linked to the capacity of muscle stem cells to be activated and promote regeneration. […] Mice were i.p injected with buprenorphine (Centravet, 0.1 mg/kg) 30 minutes before injury and the day after. The day of the injury, mice were anesthetized with isoflurane inhalation and hindlimbs were shaved. Then, 10 μM of cardiotoxin (CTX, Latoxan, #L8102) was injected through two injections of 25 μl into the left tibialis muscle and two injections of 50 μl into the left gastrocnemius muscle, using a 22-gauge needle (Hamilton). Mice were euthanized 3 and 7 days after injury by cervical dislocation, muscles (PBS- and CTX-injected) were cut in two parts, one being snap frozen into liquid nitrogen for total RNA extraction and the other part being embedded into OCT, frozen in isopentane cooled with liquid nitrogen for histological analysis.
# [2] = gastrocnemius, aged mice, 3 or 7 days, apelin 0.5 μmol/kg/day, BGE-105 50 and 200 mg/kg/day
# [3] = gastrocnemius, young mice, 3 or 7 days, apelin 0.5 μmol/kg/day, BGE-105 50 and 200 mg/kg/day
# [4] = tibialis anterior, aged mice, 7 days, apelin 0.5 μmol/kg/day, BGE-105 50 and 200 mg/kg/day
# [5] = tibialis, young mice, 3 or 7 days, apelin 0.5 μmol/kg/day, BGE-105 50 and 200 mg/kg/day
smiles,measurement,setting,value
"CSCC[C@H](NC(=O)[C@@H]1CCCN1C(=O)CNC(=O)[C@H](CCCCN)NC(=O)[C@H](Cc1c[nH]cn1)NC(=O)[C@H](CO)NC(=O)[C@H](CC(C)C)NC(=O)[C@H](CCCNC(=N)N)NC(=O)[C@@H]1CCCN1C(=O)[C@H](CCCNC(=N)N)NC(=O)[C@@H]1CCC(=O)N1)C(=O)N1CCC[C@H]1C(=O)N[C@@H](Cc1ccccc1)C(=O)O [Pyr^1-Apelin-13, reference compound]",amount of centrally nucleated myofibers (CNM),"tibialis of aged mice; 18-months old mice after cardiotoxin, apelin 0.5 μmol/kg/day, BGE-105 200 mg/kg/day",significant increase
same,cross-sectional area of the tibialis,"tibialis of aged mice; aged mice, 3 and 7 days post cardiotoxin, apelin, BGE-105 50 and 200 mg/kg/d",significant increase in cross sectional area
same,Pax7 transcript levels,"[1]; gastrocnemius, aged (18-month-old) mice, 3 or 7 days, apelin 0.5 μmol/kg/day, BGE-105 50 and 200 mg/kg/day",no significant change
same,MyoD transcript levels,"[1]; gastrocnemius, aged mice, 3 and 7 days, apelin 0.5 μmol/kg/day, BGE-105 50 and 200 mg/kg/day",significant increase
same,Myf5 transcript levels,[1]; [2],no significant change
same,MyoG transcript levels,[1]; [2],no significant change
same,MyHC8 transcript levels,"[1]; gastrocnemius, aged mice, any time point, any treatment",does not show a change
same,Pax7 transcript levels,"[1]; gastrocnemius, young (3-month-old) mice, 3 or 7 days, apelin 0.5 μmol/kg/day, BGE-105 50 and 200 mg/kg/day",no change
same,Myf5 transcript levels,[1]; [3],no change
same,MyoD transcript levels,[1]; [3],no change
same,MyoG transcript levels,[1]; [3],no change
same,MyHC8 transcript levels,"[1]; gastrocnemius, young mice, 3 days, apelin 0.5 μmol/kg/day, BGE-105 50 and 200 mg/kg/day",non-significant increase
same,Pax7 transcript levels,"[1]; tibialis anterior, aged (18-month-old) mice, 7 days post cardiotoxin, apelin 0.5 μmol/kg/day, BGE-105 50 and 200 mg/kg/day",significant increase
same,MyoD transcript levels,"[1]; tibialis anterior, aged mice, 3 and 7 days post cardiotoxin, apelin 0.5 μmol/kg/day, BGE-105 50 and 200 mg/kg/day",significant increase
same,MyHC3 transcript levels,[1]; [4],significant increase
same,Myf5 transcript levels,[1]; [4],significant change
same,MyoG transcript levels,[1]; [4],significant increase
same,Pax7 transcript levels,"[1]; tibialis, young (3-month-old) mice, 3 or 7 days, apelin 0.5 μmol/kg/day, BGE-105 50 and 200 mg/kg/day",no change
same,MyHC3 transcript levels,[1]; [5],no significant change
same,MyHC8 transcript levels,[1]; [5],no significant change
same,Myf5 transcript levels,[1]; [5],no difference
same,MyoD transcript levels,[1]; [5],no significant increase
same,MyoG transcript levels,[1]; [5],no difference

# Reference: patent publication US20240252493A1, “Apelin Receptor Modulators for Treating Age-Related Muscle Conditions” (BIOAGE LABS, INC., priority 2021, published 2024)
